Measured values: PubChem BioAssay AID248 (DTP/NCI, 2004)
Toxic doses and inconclusive results are not listed. No stated cut-off is given here; in the data, active means T/C of 150% or more; inactive means T/C below 125%.

System: L1210 leukemia ip in BDF1 mice, survival T/C
Test: NCI In Vivo Anticancer Drug Screen. Data for tumor model L1210 Leukemia (intraperitoneal) in B6D2F1 (BDF1) mice
Conditions: higher = longer survival
In short: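 Mice bearing the transplanted tumor received compound or vehicle. Survival of the treated group was divided by that of the vehicle-treated control group to give the ratio.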

[1] = endpoint: mean survival time, dose: 100.0 mg/kg/injection, schedule: Q01DX009 (ip), vehicle: Klucel (hydroxypropylcellulose) (HPC)
[2] = endpoint: mean survival time, dose: 100.0 mg/kg/injection, schedule: Q04DX003 (ip), vehicle: Klucel (hydroxypropylcellulose) (HPC)
[3] = endpoint: mean survival time, dose: 200.0 mg/kg/injection, schedule: Q01DX009 (ip), vehicle: Klucel (hydroxypropylcellulose) (HPC)
[4] = endpoint: mean survival time, dose: 200.0 mg/kg/injection, schedule: Q04DX003 (ip), vehicle: Klucel (hydroxypropylcellulose) (HPC)
[5] = endpoint: mean survival time, dose: 400.0 mg/kg/injection, schedule: Q01DX009 (ip), vehicle: Klucel (hydroxypropylcellulose) (HPC)
[6] = endpoint: mean survival time, dose: 400.0 mg/kg/injection, schedule: Q04DX003 (ip), vehicle: Klucel (hydroxypropylcellulose) (HPC)
[7] = endpoint: mean survival time, dose: 100.0 mg/kg/injection, schedule: Q04DX003 (ip), vehicle: saline with Tween-80
[8] = endpoint: mean survival time, dose: 200.0 mg/kg/injection, schedule: Q04DX003 (ip), vehicle: saline with Tween-80
[9] = endpoint: mean survival time, dose: 400.0 mg/kg/injection, schedule: Q04DX003 (ip), vehicle: saline with Tween-80
[10] = endpoint: mean survival time, dose: 100.0 mg/kg/injection, schedule: Q01DX009 (ip), vehicle: saline with Tween-80
[11] = endpoint: mean survival time, dose: 400.0 mg/kg/injection, schedule: Q01DX009 (ip), vehicle: saline with Tween-80

Measured: T/C

O=c1nc(NO)ccn1C1CCCO1 (stereo unspecified)
inactive: endpoint: mean survival time, dose: 100.0 mg/kg/injection, schedule: Q01DX001 (ip), vehicle: carboxymethylcellulose (CMC) 96 % of control | endpoint: mean survival time, dose: 200.0 mg/kg/injection, schedule: Q01DX001 (ip), vehicle: carboxymethylcellulose (CMC) 100 % of control | endpoint: mean survival time, dose: 400.0 mg/kg/injection, schedule: Q01DX001 (ip), vehicle: carboxymethylcellulose (CMC) 96 % of control

COc1ncnc(=O)[nH]1
inactive: endpoint: mean survival time, dose: 100.0 mg/kg/injection, schedule: Q01DX001 (ip), vehicle: saline 97 % of control | endpoint: mean survival time, dose: 200.0 mg/kg/injection, schedule: Q01DX001 (ip), vehicle: saline 98 % of control | endpoint: mean survival time, dose: 400.0 mg/kg/injection, schedule: Q01DX001 (ip), vehicle: saline 97 % of control

Cc1ccc2nc3c4ccccc4c4ccccc4c3nc2c1
inactive: [1] 101 % of control | [2] 105 % of control | [3] 102 % of control | [4] 105 % of control | [5] 101 % of control | [6] 98 % of control

CNC(=O)c1ccc(C(=O)NC)cc1
inactive: [7] 94 % of control | [8] 103 % of control | [9] 100 % of control

COc1cccc(C(C)(C)COS(=O)(=O)c2ccc(C)cc2)c1
inactive: endpoint: mean survival time, dose: 50.0 mg/kg/injection, schedule: Q01DX009 (ip), vehicle: saline with Tween-80 90 % of control | [10] 90 % of control

CC(=O)OC1(C)CC(C)C(=O)C(C(O)CC2CC(=O)NC(=O)C2)C1 (stereo unspecified)
inactive: endpoint: mean survival time, dose: 0.05 mg/kg/injection, schedule: Q01DX009 (ip), vehicle: saline with Tween-80 108 % of control | endpoint: mean survival time, dose: 0.06 mg/kg/injection, schedule: Q01DX009 (ip), vehicle: water 107 % of control | endpoint: mean survival time, dose: 0.1 mg/kg/injection, schedule: Q01DX009 (ip), vehicle: saline with Tween-80 114 % of control | endpoint: mean survival time, dose: 0.12 mg/kg/injection, schedule: Q01DX009 (ip), vehicle: saline 117 % of control | endpoint: mean survival time, dose: 0.15 mg/kg/injection, schedule: Q01DX009 (ip), vehicle: saline with Tween-80 91 % of control | endpoint: mean survival time, dose: 0.15 mg/kg/injection, schedule: Q01DX009 (ip), vehicle: saline 120 % of control | endpoint: mean survival time, dose: 0.2 mg/kg/injection, schedule: Q01DX009 (ip), vehicle: saline with Tween-80 120 % of control | endpoint: mean survival time, dose: 0.25 mg/kg/injection, schedule: Q01DX009 (ip), vehicle: saline 109 % of control | endpoint: mean survival time, dose: 0.3 mg/kg/injection, schedule: Q01DX009 (ip), vehicle: saline 118 % of control | endpoint: mean survival time, dose: 0.5 mg/kg/injection, schedule: Q01DX009 (ip), vehicle: saline 96 % of control | endpoint: mean survival time, dose: 0.5 mg/kg/injection, schedule: Q01DX009 (ip), vehicle: water 108 % of control | endpoint: mean survival time, dose: 0.5 mg/kg/injection, schedule: Q04DX003 (ip), vehicle: water 108 % of control | endpoint: mean survival time, dose: 1.0 mg/kg/injection, schedule: Q01DX009 (ip), vehicle: water 100 % of control | endpoint: mean survival time, dose: 1.0 mg/kg/injection, schedule: Q04DX003 (ip), vehicle: saline 115 % of control | endpoint: mean survival time, dose: 1.0 mg/kg/injection, schedule: Q04DX003 (ip), vehicle: water 109 % of control | endpoint: mean survival time, dose: 1.2 mg/kg/injection, schedule: Q01DX009 (ip), vehicle: saline 115 % of control | endpoint: mean survival time, dose: 2.0 mg/kg/injection, schedule: Q01DX001 (ip), vehicle: saline 102 % of control | endpoint: mean survival time, dose: 2.0 mg/kg/injection, schedule: Q04DX003 (ip), vehicle: saline 116 % of control | endpoint: mean survival time, dose: 2.0 mg/kg/injection, schedule: Q04DX003 (ip), vehicle: water 108 % of control | endpoint: mean survival time, dose: 2.0 mg/kg/injection, schedule: Q08DX002 (ip), vehicle: saline 102 % of control | endpoint: mean survival time, dose: 4.0 mg/kg/injection, schedule: Q01DX001 (ip), vehicle: saline 100 % of control | endpoint: mean survival time, dose: 4.0 mg/kg/injection, schedule: Q04DX003 (ip), vehicle: saline 114 % of control | endpoint: mean survival time, dose: 4.0 mg/kg/injection, schedule: Q04DX003 (ip), vehicle: water 100 % of control | endpoint: mean survival time, dose: 4.0 mg/kg/injection, schedule: Q08DX002 (ip), vehicle: saline 98 % of control | endpoint: mean survival time, dose: 8.0 mg/kg/injection, schedule: Q01DX001 (ip), vehicle: saline 109 % of control | endpoint: mean survival time, dose: 8.0 mg/kg/injection, schedule: Q08DX002 (ip), vehicle: saline 100 % of control | endpoint: mean survival time, dose: 62.5 micrograms/kg/injection, schedule: Q01DX009 (ip), vehicle: saline 115 % of control | endpoint: mean survival time, dose: 125.0 micrograms/kg/injection, schedule: Q01DX009 (ip), vehicle: saline 123 % of control | endpoint: mean survival time, dose: 125.0 micrograms/kg/injection, schedule: Q03HX008 (ip), vehicle: saline 104 % of control | endpoint: mean survival time, dose: 125.0 micrograms/kg/injection, schedule: Q03HX016 (ip), vehicle: saline 123 % of control | endpoint: mean survival time, dose: 250.0 micrograms/kg/injection, schedule: Q01DX009 (ip), vehicle: saline 101 % of control | endpoint: mean survival time, dose: 250.0 micrograms/kg/injection, schedule: Q03HX008 (ip), vehicle: saline 112 % of control | endpoint: median survival time, dose: 1.0 mg/kg/injection, schedule: Q04DX003 (ip), vehicle: saline 103 % of control | endpoint: median survival time, dose: 2.0 mg/kg/injection, schedule: Q04DX003 (ip), vehicle: saline 105 % of control | endpoint: median survival time, dose: 4.0 mg/kg/injection, schedule: Q04DX003 (ip), vehicle: saline 106 % of control | endpoint: median survival time, dose: 8.0 mg/kg/injection, schedule: Q04DX003 (ip), vehicle: saline 114 % of control

CCCOP(=O)(CCl)OCCC
inactive: endpoint: mean survival time, dose: 100.0 mg/kg/injection, schedule: Q04DX003 (ip), vehicle: saline 101 % of control | endpoint: mean survival time, dose: 200.0 mg/kg/injection, schedule: Q04DX003 (ip), vehicle: saline 104 % of control | endpoint: mean survival time, dose: 400.0 mg/kg/injection, schedule: Q04DX003 (ip), vehicle: saline 101 % of control

Nc1nc(CNc2ccc(Cl)cc2)nc(Nc2ccc(Cl)cc2)n1
inactive: [7] 89 % of control | [8] 95 % of control | [9] 95 % of control

CC1(c2ccccc2O)Nc2ccccc2S1 (stereo unspecified)
inactive: [7] 92 % of control | [8] 92 % of control | [9] 96 % of control

CCCC(O)c1ccc(OC)c(OC)c1 (stereo unspecified)
inactive: endpoint: mean survival time, dose: 100.0 mg/kg/injection, schedule: Q04DX002 (ip), vehicle: Klucel (hydroxypropylcellulose) (HPC) 97 % of control | endpoint: mean survival time, dose: 200.0 mg/kg/injection, schedule: Q04DX002 (ip), vehicle: Klucel (hydroxypropylcellulose) (HPC) 102 % of control

Cc1cn(C2C=CC(CO)O2)c(=O)[nH]c1=O (stereo unspecified)
inactive: [10] 89 % of control | [11] 90 % of control

c1cc(OC2CCCCO2)ccc1OC1CCCCO1 (stereo unspecified)
inactive: [10] 98 % of control | [7] 95 % of control | endpoint: mean survival time, dose: 200.0 mg/kg/injection, schedule: Q01DX009 (ip), vehicle: saline with Tween-80 97 % of control | [8] 93 % of control | [11] 97 % of control | [9] 95 % of control

C=CC1C[N+]2(SS(=O)(=O)O)CCC1CC2C(O)c1ccnc2ccc(OC)cc12 (stereo unspecified)
inactive: endpoint: mean survival time, dose: 18.8 mg/kg/injection, schedule: Q01DX009 (ip), vehicle: saline 91 % of control | endpoint: mean survival time, dose: 37.5 mg/kg/injection, schedule: Q01DX009 (ip), vehicle: saline 94 % of control | endpoint: mean survival time, dose: 75.0 mg/kg/injection, schedule: Q01DX009 (ip), vehicle: saline 88 % of control

O=C(Nc1ccccc1C(F)(F)F)c1ccc(Cl)c(Cl)c1
inactive: [1] 92 % of control | [2] 91 % of control | [3] 89 % of control | [4] 90 % of control | [6] 88 % of control

Cc1ccc(NC(=O)Oc2cc(C)c(Cl)c(C)c2)cc1
inactive: [1] 94 % of control | [3] 97 % of control | [5] 96 % of control

C/C(=C/Cl)OC(C)C
inactive: endpoint: mean survival time, dose: 50.0 mg/kg/injection, schedule: Q01DX009 (ip), vehicle: acetone 99 % of control | endpoint: mean survival time, dose: 100.0 mg/kg/injection, schedule: Q01DX009 (ip), vehicle: acetone 99 % of control | endpoint: mean survival time, dose: 200.0 mg/kg/injection, schedule: Q01DX009 (ip), vehicle: acetone 101 % of control
